test system: PAF-induced aggregation (rabbit platelet plasma); test: Platelet aggregation inhibitory action on PAF-induced aggregation; format: cell-based; conditions: Oryctolagus cuniculus, 0.05 h, 100 μM, PAF 10-50 μg/ml, 37° C., 3 min incubation, hydrochloride salt, read-out: inhibition ratio, PAF-induced platelet aggregation
Description: (§1) The pharmacological activity of the present compounds [1] is illustrated below. All the compounds [1] used in the pharmacological tests were tested in the form of the hydrochloride salt thereof.
(§2) 1. Platelet aggregation inhibition:
(§3) Sample solution containing a compound [1] (final concentration 500 or 100 μM) is added to rabbit platelet plasma to which was added 10% by volume of a 3.8% sodium citrate solution, and the mixture is incubated at 37° C. for 3 minutes. A platelet activation factor (PAF, final concentration 10-50 μg/ml) or collagen (final concentration 2.5 μg/ml) is added thereto as an aggregating agent, and platelet aggregation activity is measured with an aggregometer. The results of assays for PAF-induced aggregation are shown in Table 3, and those for collagen-induced aggregation are shown in Table 4, which tables show the strong platelet aggregation inhibitory activity of the compounds [1] of the present invention.

SMILES	inhibition at 100 µM [%]
CCc1nc(C)c(C)nc1OC(C(=O)NCCN1CCOCC1)c1ccccc1 (stereo not drawn) [Compound 341]	42
CCc1nc(C)c(C)nc1OC(C(=O)NCCN1CCN(Cc2ccccc2)CC1)c1ccccc1 (stereo not drawn) [Compound 342]	43
CCc1nc(C)c(C)nc1OC(C(=O)NCCN1CCN(Cc2ccc([N+](=O)[O-])cc2)CC1)c1ccccc1 (stereo not drawn) [Compound 344]	44
CCc1nc(C)c(C)nc1OC(C(=O)NCCN1CCCN(Cc2ccc(F)cc2)CC1)c1ccccc1 (stereo not drawn) [Compound 347]	59
CCc1nc(C)c(C)nc1OC(C(=O)NCCN1CCCN(Cc2ccc(Cl)cc2)CC1)c1ccccc1 (stereo not drawn) [Compound 348]	70
CCc1nc(C)c(C)nc1OCCN1CCCN(Cc2ccc([N+](=O)[O-])cc2)CC1 [Compound 502]	81
CCc1nc(C)c(C)nc1OCCN1CCCN(Cc2ccc(F)cc2)CC1 [Compound 503]	42
CCc1nc(C)c(C)nc1OCCN1CCCN(Cc2ccc(Cl)cc2)CC1 [Compound 504]	60
Cc1nc(C)c(OCCN2CCCN(Cc3ccc(Cl)cc3)CC2)nc1C [Compound 541]	44
CCCCN1CCN(CCOc2nc(CC)c(CC)nc2C(C)C)CC1 [Compound 551]	97
CCc1nc(OCCN2CCN(Cc3ccccc3)CC2)c(C(C)C)nc1CC [Compound 552]	78
CCc1nc(OCCN2CCCN(Cc3ccc(OC)cc3)CC2)c(C(C)C)nc1CC [Compound 553]	82
CCCCCc1nc2c(nc1OCCN1CCN(CCCC)CC1)CCCC2 [Compound 560]	97
CCCCCc1nc2c(nc1OCCN1CCN(Cc3ccccc3)CC1)CCCC2 [Compound 561]	56
CCCCCc1nc2c(nc1OCCN1CCCN(Cc3ccc(F)cc3)CC1)CCCC2 [Compound 562]	45
CCCCCCc1nc2c(nc1OCCN1CCN(CCCC)CC1)CCCC2 [Compound 565]	94
CCCCCCc1nc2c(nc1OCCN1CCN(Cc3ccccc3)CC1)CCCC2 [Compound 567]	58
CCCCCCc1nc2c(nc1OCCN1CCN(c3ccccc3OC)CC1)CCCC2 [Compound 570]	40
CCCCCCCc1nc2c(nc1OCCN1CCN(CCCC)CC1)CCCC2 [Compound 571]	88
CCCCCCCCCCCCc1nc2c(nc1OCCN1CCN(CCCC)CC1)CCCC2 [Compound 595]	85
CCCCCCCCCCCCCCc1nc2c(nc1OCCN1CCN(CCCC)CC1)CCCC2 [Compound 600]	52

same assay, conditions: Oryctolagus cuniculus, 0.05 h, 500 μM, PAF 10-50 μg/ml, 37° C., 3 min incubation, hydrochloride salt, read-out: inhibition ratio, PAF-induced platelet aggregation

SMILES	inhibition at 500 µM [%]
Cc1nc(C)c(OCC(=O)N2CCN(C(=O)COc3nc(C)c(C)nc3C)CC2)nc1C [Compound 070]	48

test system: collagen-induced aggregation (rabbit platelet plasma); test: Platelet aggregation inhibitory action on collagen-induced aggregation; format: cell-based; conditions: Oryctolagus cuniculus, 0.05 h, collagen 2.5 μg/ml, 37° C., 3 min incubation, hydrochloride salt, read-out: inhibition ratio, collagen-induced platelet aggregation
Description: as §1, §2, §3

SMILES	inhibition at 100 µM [%]
Cc1nc(OCCN2CCCN(Cc3ccc(Cl)cc3)CC2)c(C(C)C)nc1C [Compound 547]	56
CCCCCCCCCc1nc2c(nc1OCCN1CCN(Cc3ccc(OC)cc3)CC1)CCCC2 [Compound 582]	58

test system: lipoperoxide generation in rat cerebrum; test: Antioxidant activity (inhibition of lipoperoxide generation, method of Stocks et al.); format: biochemical; conditions: 100 μM; rat cerebrum supernatant, 37° C., 15 min, thiobarbituric acid, 532 nm; hydrochloride salt
Description: as §1
Antioxidant activity is determined according to the method of Stocks et al. [Clin. Sci. Mol. Med., 47: 215 (1974)]. Rat cerebrum is added to ice-cooled 40 mM phosphate saline buffer solution (PBS) (pH 7.4, 4 ml buffer per 1 g cerebrum), homogenized and centrifuged (1000×g, 4° C., 10 min.) to obtain a supernatant solution. The supernatant solution is diluted fivefold with the above ice-cooled PBS solution, and to a 0.9 ml aliquot thereof is added a sample containing a compound [1] (0.1 ml, final concentration 100 μM) dissolved in ethanol. The resultant mixture is incubated at 37° C. for 15 minutes, 35% perchloric acid (0.2 ml) is added, and the mixture is ice-cooled to stop the reaction and centrifuged (1300×g, 4° C., 10 min.). 0.5 ml thiobarbituric acid (5 g/lit. of 50% acetic acid) is added to the supernatant solution (1 ml), so as to measure its absorbancy at 532 nm. The amount of lipoperoxide thus generated is expressed as an amount of malondialdehyde.

SMILES	inhibition ratio, lipoperoxide generation (antioxidant activity) [%]
CCc1nc(C)c(C)nc1OC(C(=O)NCCN1CCN(Cc2ccc([N+](=O)[O-])cc2)CC1)c1ccccc1 (stereo not drawn) [Compound 344]	48
CCc1nc(C)c(C)nc1OC(C(=O)NCCN1CCN(Cc2ccc(Cl)cc2Cl)CC1)c1ccccc1 (stereo not drawn) [Compound 345]	54
CCc1nc(C)c(C)nc1OC(C(=O)NCCN1CCCN(Cc2ccc(F)cc2)CC1)c1ccccc1 (stereo not drawn) [Compound 347]	51
CCc1nc(C)c(C)nc1OC(C(=O)NCCN1CCCN(Cc2ccc(Cl)cc2)CC1)c1ccccc1 (stereo not drawn) [Compound 348]	62
O=C(COc1nc2c(nc1Cc1ccccc1)CCCC2)NCCN1CCN(c2ccc(Cl)cc2)CC1 [Compound 371]	49
O=C(COc1nc2c(nc1Cc1ccccc1)CCCC2)NCCN1CCCN(Cc2ccc(F)cc2)CC1 [Compound 372]	64
O=C(COc1nc2c(nc1Cc1ccccc1)CCCC2)NCCN1CCN(c2ccccc2)CC1 [Compound 373]	49
CCc1nc(Cc2ccccc2)c(OCC(=O)NCCN2CCN(Cc3ccc(Cl)cc3)CC2)nc1CC [Compound 379]	50
CCc1nc(Cc2ccccc2)c(OCC(=O)NCCN2CCCN(Cc3ccc(Cl)cc3)CC2)nc1CC [Compound 382]	83
CCc1nc(C)c(C)nc1OCCN1CCCN(Cc2ccc([N+](=O)[O-])cc2)CC1 [Compound 502]	69
Cc1nc(Cc2ccccc2)c(OCCN2CCCN(Cc3ccc(Cl)cc3)CC2)nc1C [Compound 516]	75
CCCCc1nc2c(nc1OCCN1CCCN(Cc3ccc(Cl)cc3)CC1)CCCC2 [Compound 520]	83
CCCCCc1nc2c(nc1OCCN1CCCN(Cc3ccc(F)cc3)CC1)CCCC2 [Compound 562]	65
CCCCCCc1nc2c(nc1OCCN1CCN(Cc3ccc(Cl)cc3)CC1)CCCC2 [Compound 568]	61
CCCCCCc1nc2c(nc1OCCN1CCCN(Cc3ccc(F)cc3)CC1)CCCC2 [Compound 569]	81
CCCCCCc1nc2c(nc1OCCN1CCN(c3ccccc3OC)CC1)CCCC2 [Compound 570]	65
CCCCCCCCc1nc2c(nc1OCCN1CCN(Cc3ccccc3)CC1)CCCC2 [Compound 574]	71
CCCCCCCCc1nc2c(nc1OCCN1CCN(Cc3ccc(Cl)cc3)CC1)CCCC2 [Compound 575]	79
CCCCCCCCc1nc2c(nc1OCCN1CCCN(Cc3ccc(F)cc3)CC1)CCCC2 [Compound 576]	85
CCCCCCCCc1nc2c(nc1OCCN1CCN(c3ccccc3)CC1)CCCC2 [Compound 577]	71
CCCCCCCCc1nc2c(nc1OCCN1CCN(c3ccccc3OC)CC1)CCCC2 [Compound 578]	88

SMILES	inhibition ratio, lipoperoxide generation (antioxidant activity) [%]
CCCCCCCCCc1nc2c(nc1OCCN1CCN(Cc3ccccc3)CC1)CCCC2 [Compound 581]	71
CCCCCCCCCc1nc2c(nc1OCCN1CCN(Cc3ccc(OC)cc3)CC1)CCCC2 [Compound 582]	82
CCCCCCCCCc1nc2c(nc1OCCN1CCCN(Cc3ccc(Cl)cc3)CC1)CCCC2 [Compound 583]	82
CCCCCCCCCCc1nc2c(nc1OCCN1CCCCC1)CCCC2 [Compound 586]	68
CCCCCCCCCCc1nc2c(nc1OCCN1CCN(Cc3ccccc3)CC1)CCCC2 [Compound 589]	74
CCCCCCCCCCc1nc2c(nc1OCCN1CCN(Cc3ccc(Cl)cc3)CC1)CCCC2 [Compound 590]	74
CCCCCCCCCCc1nc2c(nc1OCCN1CCN(C(c3ccccc3)c3ccccc3)CC1)CCCC2 [Compound 591]	59
CCCCCCCCCCc1nc2c(nc1OCCN1CCCN(Cc3ccc(F)cc3)CC1)CCCC2 [Compound 592]	85
CCCCCCCCCCc1nc2c(nc1OCCN1CCN(c3ccc(OC)cc3)CC1)CCCC2 [Compound 593]	73
CCCCCCCCCCCCc1nc2c(nc1OCCN1CCOCC1)CCCC2 [Compound 594]	58
CCCCCCCCCCCCc1nc2c(nc1OCCN1CCN(CCCC)CC1)CCCC2 [Compound 595]	70
CCCCCCCCCCCCc1nc2c(nc1OCCN1CCN(Cc3ccccc3)CC1)CCCC2 [Compound 596]	73
CCCCCCCCCCCCc1nc2c(nc1OCCN1CCN(Cc3ccc(OC)cc3)CC1)CCCC2 [Compound 597]	76
CCCCCCCCCCCCc1nc2c(nc1OCCN1CCCN(Cc3ccc(F)cc3)CC1)CCCC2 [Compound 598]	88
CCCCCCCCCCCCc1nc2c(nc1OCCN1CCN(c3ccccc3OC)CC1)CCCC2 [Compound 599]	70
CCCCCCCCCCCCCCc1nc2c(nc1OCCN1CCN(CCCC)CC1)CCCC2 [Compound 600]	61
CCCCCCCCCCCCCCc1nc2c(nc1OCCN1CCN(Cc3ccccc3)CC1)CCCC2 [Compound 601]	67
CCCCCCCCCCCCCCc1nc2c(nc1OCCN1CCN(Cc3ccc(F)cc3)CC1)CCCC2 [Compound 602]	64
CCCCCCCCCCCCCCc1nc2c(nc1OCCN1CCCN(Cc3ccc(Cl)cc3)CC1)CCCC2 [Compound 603]	76
CCCCCCCCCCCCCCCCc1nc2c(nc1OCCN1CCN(CCCC)CC1)CCCC2 [Compound 607]	52
CCCCCCCCCCCCCCCCc1nc2c(nc1OCCN1CCN(Cc3ccccc3)CC1)CCCC2 [Compound 608]	55

From US4894453A, “2-substituted alkoxy-3-substituted-pyrazines” (Toyo Jozo Kabushiki Kaisha, priority 1986, dated 1990)
